The results in this text go back to publication PMC5028780, “Receptor and transporter binding and activity profiles of albiflorin extracted from Radix paeoniae Alba” (Scientific Reports, 2016).

As usually defined, the IC50 is the concentration that gives 50% inhibition.

The target of one experiment is T1, DAT (Rattus norvegicus, UniProt P23977).
T1 construct: rat brain synaptosomes were prepared and treated with various concentrations of albiflorin; from tissue; host or cells: Sprague-Dawley rat striatal synaptosomes
The class given is biochemical. The conditions noted are these: Striatum synaptosome, read-out: IC50 values, uptake of [3H]-DA (DAT). The protocol:
(§1) Male Sprague–Dawley rats were killed by asphyxiation with carbon dioxide and cervical dislocation followed by decapitation. The brains were removed quickly and the cerebral cortex, hypothalamus and striatum were dissected on ice. All dissected tissues were homogenised using a Teflon-glass tissue homogeniser in 4 mL of ice-cold sucrose (0.32 M). The homogenised tissue was centrifuged at 2,000× g for 10 min at 4 °C. […] Bio-Rad protein assay reagents (1:5 ratio) were used to analyse the protein concentration of the synaptosomal suspension. Uptake of 5-HT, NE and DA was determined as described previously. The compounds to be tested were dissolved in DMSO, further diluted with assay buffer, and tested over a 10-log unit concentration range in duplicate. Samples of 30–50 μg of synaptosomes (per sample in a total volume of 200 μL) were preincubated at 37 °C in a shaking water bath for 10 min. Vehicle or modifiers were then added for 10–20 min. Uptake was initiated by adding [^3H]-5-HT (20 nM), [^3H]-NE (20 nM), or [^3H]-DA (50 nM). After a 10-min incubation at 37 °C, uptake was terminated by filtration through (polyethyleneimine-coated) GF/B Whatman filters using a Brandel Cell Harvester (Brandel, Gaithersburg, MD).
(§2) All data for inhibition curves were analysed by nonlinear regression using Prism software (GraphPad Software Inc., San Diego, CA) to determine IC50 values. […]

The target in another experiment is NET (Rattus norvegicus, UniProt Q63380). The class given is biochemical. The following applies: Frontal cortex synaptosome, read-out: IC50 values, uptake of [3H]-NE (NET). Here is the method: as §1, §2
The target of a further experiment is β1 (Homo sapiens, UniProt P08588). In words: CNS receptor binding, NE receptor β1. The following applies: HEK293 cell line, [3H]-DHA(1). The protocol: (§3) Albiflorin (10 μM) was tested for numerous other potential binding targets by using standard receptor binding procedures. The tested targets included the following receptors: D1, D2, D3, D4, D5, 5-HT1A, 5-HT1B, 5-HT1D, 5-HT2a, 5-HT2C, 5-HT3, 5-HT5A, 5-HT6, 5-HT7, α1A, α1B, α2A, β1, M1, M2, M3, M4, M5, μ, κ, δ, A1, A2A, H1, H2, H3, H4.

Another experiment addresses M1 (Homo sapiens, UniProt P11229). Briefly: CNS receptor binding, muscarinic M1. The conditions noted are these: CHO cell line, [3H]-NMS(1). The protocol: as §3
Another experiment concerns the target T2, D4 (Homo sapiens, UniProt P21917).
T2 construct: expressed in transfected cells; host or cells: HEK293 cell line
In words: CNS receptor binding, dopamine D4. The conditions noted are these: HEK293 cell line, [3H]-spiperone(1). The protocol: as §3

The target of the next experiment is M4 (Homo sapiens, UniProt P08173). Briefly: CNS receptor binding, muscarinic M4. The following applies: CHO cell line, [3H]-NMS(1). Here is the method: as §3
[1] abbreviates: read-out: IC50 values for albiflorin.

Bounds are passed on as bounds.

Sequence of M4 (P08173 whole entry): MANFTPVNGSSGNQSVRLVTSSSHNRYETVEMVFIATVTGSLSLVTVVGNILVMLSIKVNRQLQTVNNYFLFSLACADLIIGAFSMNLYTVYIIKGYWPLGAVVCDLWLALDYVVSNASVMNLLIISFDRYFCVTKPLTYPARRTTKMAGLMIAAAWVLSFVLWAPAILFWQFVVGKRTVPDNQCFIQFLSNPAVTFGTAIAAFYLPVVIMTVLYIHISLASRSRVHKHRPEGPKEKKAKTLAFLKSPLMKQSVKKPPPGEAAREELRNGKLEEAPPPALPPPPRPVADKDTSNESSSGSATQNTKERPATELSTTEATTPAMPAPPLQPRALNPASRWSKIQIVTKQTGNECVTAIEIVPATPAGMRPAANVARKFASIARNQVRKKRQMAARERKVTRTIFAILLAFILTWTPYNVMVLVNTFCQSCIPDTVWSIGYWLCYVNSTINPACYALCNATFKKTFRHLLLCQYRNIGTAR
Sequence of M1 (P11229 whole entry): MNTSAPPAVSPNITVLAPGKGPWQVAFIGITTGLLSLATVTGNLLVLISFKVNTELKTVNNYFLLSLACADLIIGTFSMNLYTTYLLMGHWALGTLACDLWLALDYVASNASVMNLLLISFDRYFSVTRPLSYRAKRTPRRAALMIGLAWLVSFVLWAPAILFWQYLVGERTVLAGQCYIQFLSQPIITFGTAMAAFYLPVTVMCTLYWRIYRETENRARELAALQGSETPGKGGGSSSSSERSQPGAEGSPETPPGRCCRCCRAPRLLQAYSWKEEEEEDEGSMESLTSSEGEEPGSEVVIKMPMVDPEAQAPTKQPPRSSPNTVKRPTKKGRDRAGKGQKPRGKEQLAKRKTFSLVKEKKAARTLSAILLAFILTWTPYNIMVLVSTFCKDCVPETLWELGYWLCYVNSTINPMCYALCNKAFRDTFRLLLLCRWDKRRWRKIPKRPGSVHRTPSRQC
Sequence of β1 (P08588 whole entry): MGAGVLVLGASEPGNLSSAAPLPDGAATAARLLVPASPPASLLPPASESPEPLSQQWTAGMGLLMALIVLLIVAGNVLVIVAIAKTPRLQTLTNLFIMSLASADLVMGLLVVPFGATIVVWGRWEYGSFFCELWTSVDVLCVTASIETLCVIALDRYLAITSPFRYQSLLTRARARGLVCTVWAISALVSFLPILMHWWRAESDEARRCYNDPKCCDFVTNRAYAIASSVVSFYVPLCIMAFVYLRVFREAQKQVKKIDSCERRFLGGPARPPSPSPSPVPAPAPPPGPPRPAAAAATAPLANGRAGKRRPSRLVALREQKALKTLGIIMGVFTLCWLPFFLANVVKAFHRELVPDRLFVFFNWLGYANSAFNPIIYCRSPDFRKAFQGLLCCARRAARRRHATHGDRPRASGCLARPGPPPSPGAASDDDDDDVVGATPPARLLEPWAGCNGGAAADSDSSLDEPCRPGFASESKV
T2 sequence (P21917 whole entry): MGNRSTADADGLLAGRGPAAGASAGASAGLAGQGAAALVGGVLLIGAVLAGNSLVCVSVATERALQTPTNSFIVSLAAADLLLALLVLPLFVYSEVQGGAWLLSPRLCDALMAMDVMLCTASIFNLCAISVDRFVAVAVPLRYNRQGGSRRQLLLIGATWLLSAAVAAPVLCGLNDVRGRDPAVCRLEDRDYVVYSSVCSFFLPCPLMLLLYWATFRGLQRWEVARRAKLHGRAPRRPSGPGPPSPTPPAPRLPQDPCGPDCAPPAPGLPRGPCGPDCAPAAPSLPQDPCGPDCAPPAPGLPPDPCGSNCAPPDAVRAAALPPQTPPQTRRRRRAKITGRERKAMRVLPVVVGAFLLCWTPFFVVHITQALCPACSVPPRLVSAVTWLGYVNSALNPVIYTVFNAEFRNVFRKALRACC
T1 sequence (P23977 whole entry): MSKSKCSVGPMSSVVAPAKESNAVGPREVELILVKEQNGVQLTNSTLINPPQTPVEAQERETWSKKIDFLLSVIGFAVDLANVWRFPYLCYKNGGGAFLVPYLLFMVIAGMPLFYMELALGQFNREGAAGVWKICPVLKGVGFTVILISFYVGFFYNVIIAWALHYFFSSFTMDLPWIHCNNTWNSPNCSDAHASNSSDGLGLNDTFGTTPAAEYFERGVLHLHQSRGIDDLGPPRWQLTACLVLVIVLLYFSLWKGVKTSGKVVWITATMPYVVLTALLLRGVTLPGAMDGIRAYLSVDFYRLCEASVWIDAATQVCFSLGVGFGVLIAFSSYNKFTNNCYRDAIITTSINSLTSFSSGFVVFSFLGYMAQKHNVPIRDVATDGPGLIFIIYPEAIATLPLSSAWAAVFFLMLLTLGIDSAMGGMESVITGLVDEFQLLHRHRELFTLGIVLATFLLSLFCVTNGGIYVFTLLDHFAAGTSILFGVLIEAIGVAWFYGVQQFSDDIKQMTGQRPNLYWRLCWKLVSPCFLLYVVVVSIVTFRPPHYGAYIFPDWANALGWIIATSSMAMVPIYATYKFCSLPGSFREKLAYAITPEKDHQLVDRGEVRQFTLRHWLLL
Sequence of NET (Q63380 1-617): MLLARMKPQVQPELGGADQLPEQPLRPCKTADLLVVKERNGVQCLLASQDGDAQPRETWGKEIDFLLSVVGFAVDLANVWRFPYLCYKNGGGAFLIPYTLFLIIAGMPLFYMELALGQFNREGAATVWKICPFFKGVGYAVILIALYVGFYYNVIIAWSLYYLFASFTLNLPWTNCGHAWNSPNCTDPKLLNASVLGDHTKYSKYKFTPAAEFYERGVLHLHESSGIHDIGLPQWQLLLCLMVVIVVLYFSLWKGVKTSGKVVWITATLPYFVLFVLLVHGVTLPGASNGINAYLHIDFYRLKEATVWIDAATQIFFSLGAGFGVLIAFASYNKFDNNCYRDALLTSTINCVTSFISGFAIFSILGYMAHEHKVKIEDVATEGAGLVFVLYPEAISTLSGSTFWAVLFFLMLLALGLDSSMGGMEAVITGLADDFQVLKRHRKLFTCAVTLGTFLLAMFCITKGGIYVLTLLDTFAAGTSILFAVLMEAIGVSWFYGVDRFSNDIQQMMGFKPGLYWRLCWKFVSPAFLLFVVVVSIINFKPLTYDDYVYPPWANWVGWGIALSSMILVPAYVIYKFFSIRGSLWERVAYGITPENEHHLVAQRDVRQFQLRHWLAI

As to `C[C@]12C[C@@H](O)[C@@H]3C[C@@]1(O[C@@H]1O[C@H](CO)[C@@H](O)[C@H](O)[C@H]1O)[C@@]3(COC(=O)c1ccccc1)C(=O)O2` [albiflorin, Albiflorin], the IC50 at DAT was 3.69 ± 0.114 µM; on NET, 0.00098 ± 0.00024 µM; on β1 (setting [1]), 3.35 ± 0.212 µM; on M1 (setting [1]), over 10 µM; at D4 (setting [1]), over 10 µM; on M4 (setting [1]), over 10 µM. The “% Inhibition of binding at 10 μM albiflorin” value at β1 is on record as 63.22%; at M1 it was 21.28%; on D4 it was 19.50%; at M4, 15.33%.
